The results in this text go back to patent US20250177366A1, “COMPOSITIONS AND METHODS FOR ALLEVIATING PAIN AND REDUCING ADVERSIVENESS OF STIMULI” (UNIVERSITY OF WASHINGTON, priority 2021, published 2025).

Format in all cases: in vivo, Zebrafish (Danio rerio)
Test [1] relates to larval zebrafish. As to the kind of experiment: Thermal preference assay (28.5° C. vs 37.5° C.), non-sensitized. The settings on record: for effect of co-applied drug on AS1-induced attraction to noxious heat / temperature choice, drug alone: 28.5° C. vs 37.5° C.; for effect of co-applied drug on AS1-induced attraction to noxious heat / effect of co-applied drug on swimming velocity of AS1-treated fish: drug + 5 μM AS1; for temperature choice, drug alone: without AS1; for effect of co-applied drug on swimming velocity of AS1-treated fish: 28.5 and 37.5° C. zones. The protocol:
Thermal preference assay. […] Once an entire plate was loaded with fish, the appropriate incubation solution was added. […] Following incubation in all experiments, the choice testing plate was transported to a dual solid-state heat/cool plate (AHP-1200° C. P; Teca) and centered such that half of each arena was positioned over each side of the heat/cool plate. […] Locomotor behavior was recorded using a Canon high-definition video camcorder suspended at a fixed position above the choice testing plate. Each trial was four minutes in duration.
For single-incubation assays (e.g. testing single chemicals), larval zebrafish were caught in 100 μL E2 media and 100 μL of the control (2% DMSO) or test chemical at 2× concentration was added to each well to achieve the final desired concentration. […] The final DMSO concentration in all solutions was 1%.

In test [2] the test system is larval zebrafish. As to the kind of experiment: AITC aversion assay (chemical attraction/aversion, AITC-infused agarose). The settings on record: AITC 100 mM in agarose; for effect of co-applied drug on AS1-induced attraction to AITC: drug + AS1 (5 μM; 2.5 μM with SKF and sumanirole); for AITC aversion, drug alone: without AS1. From the text:
Whether the effects of AS1 extended beyond noxious temperature sensation or could also impact other somatosensory modalities was next explored. To accomplish this, a chemical attraction/aversion assay where a thin layer of agarose was deposited along the edges of a square arena (Jordi et al., Sci. Adv. 2018; 4:1-15) were adapted. Along one wall, the agarose contained the chemical to be tested, while the other three walls were lined with control agarose. It was anticipated that a chemical gradient would be established as chemical diffused from the agarose into the surrounding water. Larvae were pre-incubated in either vehicle or AS1 and then added to the arena and the distance of each larva from the chemical-infused agarose was measured. In control experiments where all four walls of the arena were lined with agarose only, AS1 and vehicle-treated larvae were dispersed evenly throughout the arena (FIG. 3). […] When the nociceptive chemical AITC (100 mM, 10,000× maximal effective dose) was tested, vehicle-treated larvae swam away from the AITC source.
(§1) Chemical attraction/aversion assays. The agarose attraction/aversion assay was adapted from previously described experiments (Jordi et al., Sci. Adv. 2018; 4:1-15). For the AITC aversion assay, AITC and DMSO were added to molten 0.8% agarose to achieve a final concentration of 100 mM AITC and 2% DMSO. For the AS1 attraction/aversion assay, AS1 and DMSO were added to 0.8% molten agar to achieve final concentrations of 50 mM and 2%, respectively. To construct the test chambers, the lids of 10×10 cm square petri dishes (insert cat #and company) were lined on four sides with either the test (chemical-containing) or plain agarose (300 μL per side) and allowed to solidify. For all experiments, 30-40 randomly selected 6 dpf zebrafish were caught with a 10 mL pipette pump (Bel-Air Products, cat #: 13683C) equipped with a glass wide-bored Pasteur pipet (Fisher Scientific, cat #: 22-037-540) and deposited into a standard 10 cm diameter petri dish (Fisher Scientific, cat #: 07-202-031). As much E2 media as possible was carefully removed using the same pipette. For single incubation experiments, 30 mL of 1× solutions of the control or test chemical was added to each petri dish, and fish were incubated for 10 minutes at 28.5° C. For double incubation experiments, 15 mL of 1× solutions containing control (DMSO) or test chemicals was added to the larvae-containing petri dish. Following a ten minute incubation, 15 mL of the second incubation solution (1× control or test chemical +/−2× AS1) was added to the petri dish, and the fish were incubated for a second ten minute block. The final concentration of DMSO in all solutions was 1%. In all double-incubation experiments, the final concentration of AS1 was 5 μM unless otherwise noted. After completion of the last incubation period, the contents of each petri dish were poured into separate agarose-lined square dishes. Swimming behavior was immediately recorded for 20 minutes using the same high-definition camcorder in the thermal preference assays.

Test [3] deals with larval zebrafish. The experiment in a line: Light/dark preference (phototaxis) assay. The settings on record: for effect of co-applied drug on AS1-induced preference for the dark: drug + 2.5 μM AS1; for light/dark preference, drug alone: without AS1. The protocol: Following this, whether the effects of AS1 were restricted to somatosensation or were generalizable to other aversive stimuli were tested. Thus, the effects of AS1 on light/dark preference were tested. Zebrafish larvae prefer white light environments to dark environments and this preference is inhibited by anxiolytics, analagous to studies in rodents (Lau et al., Proc. Natl. Acad. Sci. U.S.A 2011; 108:2581-2586; Burgess et al., Curr. Biol. 2010; 20:381-386). To measure light/dark preference, larval zebrafish were placed in a square arena and given the choice between a bright white light and total darkness, and the number of larvae on each side was quantified at 30 second intervals. Five 4-minute trials were performed, where the light and dark sides of the arena were reversed between trials. […] Given the precise control over stimulus luminosity in this assay, the effects of altering the intensity of the dark stimulus were explored next. In this gradient version of the phototaxis assay, larval zebrafish were given the choice between a bright white environment and one of six potential shades of darkness, ranging from light gray to solid black. […] This implies that the valence of non-painful noxious stimuli is precisely encoded in an intensity-dependent manner, and that AS1 exerts its effects in proportion to the intensity of the stimulus.
Light/dark preference (phototaxis) assay. In the light/dark preference assay, randomly-selected 6 dpf larval zebrafish (N of 30 to 40) were carefully pipetted onto a 10 cm square petri dish using a 10 mL pipette pump equipped with a glass wide-bored Pasteur pipet. As much E2 media as possible was carefully removed using the same pipet. For single incubation experiments, 30 mL of 1× solutions of the control or test chemical was added to each petri dish, and fish were incubated for 10 minutes at 28.5° C. For double incubation experiments, 15 mL of 1× solutions containing control (DMSO) or test chemicals was added to the larvae-containing petri dish. Following a ten-minute incubation period, 15 mL of the second incubation solution (1× control or test chemical +/−2× AS1) was added to the petri dish, and the fish were incubated for a second ten minute block. The final concentration of DMSO in all solutions was 1%. In all double-incubation experiments, the final concentration of AS1 was 2.5 μM. These petri dishes were then positioned over a horizontally-oriented computer monitor displaying a PowerPoint presentation. For standard light/dark preference assays, a blank white slide was initially presented for one minute, after which the presentation would automatically advance to a slide in which half of the display was black. The petri dish with larvae was positioned such that exactly half was directly over the dark side, and the other half was directly over the light side. After four minutes, the presentation automatically advanced to a slide in which the black and white halves switched places. A total of five four-minute trials, with the dark/light halves automatically switching position between trials, were recorded. For the gradient phototaxis assay, experiments were performed identically, except that the “dark” half of the powerpoint presentation was one of six shades of gray.
In all experiments, an initial still frame of video was taken during the minute where the blank slide was presented in order to quantify the total number of fish in the experiment. Following this, still frames were taken at 30 second intervals for each trial ([…]), and the number of fish present in the light half of the arena were counted. To generate the graphs that looked at swimming patterns over time in a trial (e.g., FIG. 3D), the average percentage of fish in the light at each time point (T=0, T=30, etc.) was calculated across all five trials. […]

The subject of test [4] is larval zebrafish. As to the kind of experiment: Chemical attraction/aversion assay with the test chemical itself as source (inherent attractiveness). The settings on record: 2 mL in trough of 3D-printed arena; SKF 25 μM; AS1 10 μM-1 mM.
Source text: To confirm that AS1 itself was not attractive, the chemical attraction/aversion assay was used. […] Since the assay was modified to accommodate the inability to dissolve SKF into agarose at high concentrations (see Materials and Methods), the inherent attractiveness of AS1 was re-tested using this new format.
as §1, with “Following a ten minute incubation, 15 mL of the second incubation solution (1× control or test chemical +/−2× AS1) was added to the petri dish, and the fish were incubated for a second ten minute block. The final concentration of DMSO in all solutions was 1%. In all double-incubation experiments, the final concentration of AS1 was 5 μM unless otherwise noted. After completion of the last incubation period, the contents of each petri dish were poured into separate agarose-lined square dishes.” left out
For the SKF attraction/aversion assay, custom 10 cm×10 cm plates using clear resin (Formlabs, cat #: RS-F2-GPCL-04) and a Form 3+3D printer (Formlabs, cat #: PKG-F3-WSVC-BASIC) were designed. […] Swimming behavior was then recorded for 20 minutes. […]

As for `C=CCN1CC[C@]23c4c5ccc(O)c4O[C@H]2C(=O)CC[C@@]3(O)[C@H]1C5` [Naloxone, naloxone], in test [1], the “effect of co-applied drug on AS1-induced attraction to noxious heat” value (“effect of co-applied drug … to noxious heat” for short) is “significantly chose the 37.5 °C side” and the “temperature choice, drug alone” value was “significantly chose the 28.5 °C side of the arena”. Besides, in test [2], the “effect of co-applied drug on AS1-induced attraction to AITC” value (shortened to “effect of co-applied drug … to AITC”) is “did not reverse AS1-induced attraction towards AITC” and the “AITC aversion, drug alone” value is reported as “did not affect AITC avoidance”. In test [3], the “effect of co-applied drug on AS1-induced preference for the dark” value (“effect of co-applied drug … for the dark” below) is on record as “significantly preferred the dark, regardless of whether 1 μM naloxone was applied” and the “light/dark preference, drug alone” value is recorded as “significantly chose the light side of the arena”.
As for `C=CCN1CCc2c(cc(O)c(O)c2Cl)C(c2ccccc2)C1` (stereo not drawn) [SKF82958], in test [1], the “effect of co-applied drug on swimming velocity of AS1-treated fish” value is “reduced the swimming velocity of AS1-treated zebrafish in the 28.5 °C zone”; the “effect of co-applied drug … to noxious heat” value was “significantly attenuated the amount of time AS1-treated fish spent at 37.5 °C”; the “temperature choice, drug alone” value was “slight potentiation of preference for the 28.5 °C side”. Moreover, in test [2], the “effect of co-applied drug … to AITC” value is recorded as “did block AS1-induced preference to this chemical irritant” and the “AITC aversion, drug alone” value was “had little effect upon aversion to AITC”. For the same compound, in test [3], the “effect of co-applied drug … for the dark” value was “reversed dark preference in fish that were treated with AS1” and the “light/dark preference, drug alone” value is on record as “slight decrease in the proportion of fish found in the light by itself”. The “inherent attractiveness of chemical deposited into trough” value in test [4] is “mildly attractive”.
For the compound `CCN1CCCC1CNC(=O)c1cc(S(N)(=O)=O)ccc1OC` (stereo not drawn) [sulpiride], in test [1], the “effect of co-applied drug on swimming velocity of AS1-treated fish” value is “had no effect”; the “effect of co-applied drug … to noxious heat” value is reported as “had no effect”; the “temperature choice, drug alone” value is given as “had no effect”. Besides, in test [2], the “effect of co-applied drug … to AITC” value is “had no effect” and the “AITC aversion, drug alone” value is recorded as “had no effect”. In test [3], the “effect of co-applied drug … for the dark” value is “had no effect” and the “light/dark preference, drug alone” value is recorded as “had no effect”.
In the case of sumanirole maleate, in test [1], the “effect of co-applied drug … to noxious heat” value is “had no effect” and the “temperature choice, drug alone” value was “had no effect”. In addition, in test [2], the “effect of co-applied drug … to AITC” value is listed as “did seem to attenuate AS1-mediated attraction to AITC, but only at higher concentrations” and the “AITC aversion, drug alone” value is listed as “had little effect alone in the chemical aversion assay”. For the same compound, in test [3], the “effect of co-applied drug … for the dark” value is “had no effect” and the “light/dark preference, drug alone” value is recorded as “had no effect”.
